# Data taken from patent US5744452A, “γ-L-glutamyl containing immunomodulator compounds and methods therewith” (Wei; Edward T., priority 1995, dated 1998).
# Where a SMILES comes first, the peptide text is derived from it. Where no end group is shown, it is not given here.
# Columns and labels:
# murine bone marrow cells = experiment: .THETA.-antigen expression on murine bone marrow cells (T-lymphocyte precursor differentiation); type: cell-based, CBA strain mice; set-up: .THETA.-antigen expression on murine bone marrow cells: unit not given here; conditions: for immunostimulatory activity in the in vitro assays used: .THETA.-antigen expression and IL-2 production assays, compared with Bestim; for Percent of murine bone marrow cells expressing .THETA.-antigen: Table 5; for .THETA.-antigen expression on murine bone marrow cells: Table 1
# Method: Differentiation of murine T-lymphocyte precursors was studied by the enumeration of cells expressing early surface differentiation marker .THETA.-antigen. Bone marrow cells were obtained from CBA strain mice killed by cervical dislocation. Cells were washed from femur bones with Hank's balanced salt solution and washed 3 times with RPM 1-1640 medium by centrifugation at 400 xg. Peptides at desired concentrations were incubated with 1×10^6 /ml of obtained cells for 1 hour at 37° C. Theta-antigen (".THETA.-antigen") expression has been determined with antibrain antibodies in a cytotoxicity assay using complement-dependent cell lysis (Terasaki et al., "Microdroplet Lymphocyte Cytotoxicity Test. Manual of Tissue Typing Techniques," National Institutes of Health, Bethesda, Md., pp 50-55, 1972). Dead cells were counted microscopically after eosin staining. […] Its activity was much stronger than that of the reference thymogen peptide.
# Differentiation of murine T-lymphocyte precursors was studied by the enumeration of cells expressing early surface differentiation marker--.THETA.-antigen which is an analog of the Thy-1 lymphocyte differentiation antigen. Bone marrow cells were obtained from CBA strain mice killed by cervical dislocation. Cells were washed from femur bones with Hank's balanced salt solution and washed 3 times with RPMI-1640 medium by centrifugation at 400 xg. Peptides at desired concentrations were incubated with 1×10^6 /ml of obtained cells for 1 hour at 37° C. .THETA.-antigen expression were determined with antibrain antibodies in a cytotoxicity assay using complement-dependent cell lysis (Terasaki et al., 1972). Dead cells were counted microscopically after eosin staining untreated bone marrow cells served as a negative control, and murine thymocytes as a positive control.
# murine spleen cells = experiment: IL-2 production by Concanavalin A activated murine spleen cells (CTLL-2 cell assay); type: cell-based, CBA mice; conditions: for interleukin-2 production by murine spleen cells: Table 6; for IL-2 production by murine spleen cells: Table 2
# Method: Spleen cells from CBA mice were cultured in tissue culture plates at a 10^6 cells/ml in RPMI-1640 medium supplemented with 10% fetal calf serum, 2 mM L-glutamine, and 80 μg/ml of Gentamycin. 1 μg/ml of Concanavalin A was used to activate basal IL-2 production from murine spleen lymphocytes. Bestim was added to cell cultures at the "0" time. After 36 hours supernatants were collected, centrifuged at 800 xg and IL-2 levels were measured in a CTLL-2 cell assay (Gillis et al., "T-cell Growth Factor: Parameters of Production and Quantitative Assay for Activity," J. Immunol., 120: 2027-2032, 1978). […] However, due to the variations in the method for IL-2 measurements clear dose-response comparisons could not be achieved.
# IL-2 production studies have been performed using murine spleen lymphocytes activated with Concanavalin A. Spleen cells from CBA mice were cultured in a tissue culture plates at a 1×10^6 /ml concentration in RPMI-1640 medium supplemented with 10% fetal calf serum, 2 mM L-glutamine,80 μg/ml Gentamycin and 1 μg/ml Concanavalin A as an inducer of basal level IL-2 synthesis. Bestim at various concentration was added to cell cultures at the "0" time. After 36 hours supernatants were collected, centrifuged at 800 xg and used for IL-2 levels determination in a CTLL-2 cell assay (Gillis et al., 1978). IL-2-dependent CTLL-2 cells were grown in RPMI-1640 medium in the presence of 1-2 U/ml recombinant IL-2 as a growth factor. Before assay, cells were washed twice to remove IL-2 from the medium. After this wash tested supernatants were added and cells were incubated for 36 hours. IL-2-induced proliferation was assayed using a ^3 H-thymidine incorporation method.
# [1] = cited from earlier work
Compound,immunostimulatory activity in the in vitro assays used (murine bone marrow cells),Percent of murine bone marrow cells expressing .THETA.-antigen (murine bone marrow cells; peptide 0.0001 μg/ml),Percent of murine bone marrow cells expressing .THETA.-antigen (murine bone marrow cells; peptide 0.001 μg/ml),Percent of murine bone marrow cells expressing .THETA.-antigen (murine bone marrow cells; peptide 0.01 μg/ml),Percent of murine bone marrow cells expressing .THETA.-antigen (murine bone marrow cells; peptide 0.1 μg/ml),Percent of murine bone marrow cells expressing .THETA.-antigen (murine bone marrow cells; peptide 1.0 μg/ml),Percent of murine bone marrow cells expressing .THETA.-antigen (murine bone marrow cells; peptide 10 μg/ml),Percent of murine bone marrow cells expressing .THETA.-antigen (murine bone marrow cells; peptide 100 μg/ml),interleukin-2 production by murine spleen cells (murine spleen cells; peptide 0.001 μg/ml),interleukin-2 production by murine spleen cells (murine spleen cells; peptide 0.01 μg/ml),interleukin-2 production by murine spleen cells (murine spleen cells; peptide 0.1 μg/ml),interleukin-2 production by murine spleen cells (murine spleen cells; peptide 1.0 μg/ml),interleukin-2 production by murine spleen cells (murine spleen cells; peptide 10 μg/ml),interleukin-2 production by murine spleen cells (murine spleen cells; peptide 100 μg/ml),further results
"CN[C@@H](CCC(=O)N[C@@H](Cc1c[nH]c2ccccc12)C(=O)O)C(=O)O [B, N-methyl-γ-L-glutamyl-L-tryptophan]",active compounds were obtained,20%,29%,34%,40%,47%,51%,53%,134 ± 6,147 ± 8,152 ± 7,165 ± 6,171 ± 6,180 ± 11,
"CC(=O)N[C@@H](CCC(=O)N[C@@H](Cc1c[nH]c2ccccc12)C(=O)O)C(=O)O [C, N-acetyl-γ-L-glutamyl-L-tryptophan]",active compounds were obtained,19%,28%,35%,40%,45%,46%,50%,128 ± 7,136 ± 7,149 ± 5,157 ± 9,170 ± 4,174 ± 8,
"N[C@@H](CCC(=O)N[C@@H](Cc1cn(C=O)c2ccccc12)C(=O)O)C(=O)O [D, γ-L-glutamyl-Nin -formyl-L-tryptophan]",active compounds were obtained,24%,25%,30%,36%,42%,48%,53%,114 ± 16,125 ± 3,153 ± 20,132 ± 8,144 ± 7,154 ± 5,
"N[C@@H](CCC(=O)O)C(=O)N[C@@H](Cc1c[nH]c2ccccc12)C(=O)O [Thymogen, L-glutamyl-L-tryptophan, reference compound] (H-Glu-Trp-OH)",,,,18%,20%,25%,29%,32%,115 ± 8,132 ± 16,118 ± 11,128 ± 5,129 ± 10,136 ± 4,".THETA.-antigen expression on murine bone marrow cells (murine bone marrow cells; peptide 0.0001 μg/ml, 1 hour 37° C.): 10 ± 0.5; .THETA.-antigen expression on murine bone marrow cells (murine bone marrow cells; peptide 0.001 μg/ml): 10 ± 1.2; .THETA.-antigen expression on murine bone marrow cells (murine bone marrow cells; peptide 0.01 μg/ml): 10 ± 0.5; .THETA.-antigen expression on murine bone marrow cells (murine bone marrow cells; peptide 0.1 μg/ml): 9 ± 1.0; .THETA.-antigen expression on murine bone marrow cells (murine bone marrow cells; peptide 1.0 μg/ml): 21 ± 0.8; .THETA.-antigen expression on murine bone marrow cells (murine bone marrow cells; peptide 10 μg/ml): 36 ± 2.8; .THETA.-antigen expression on murine bone marrow cells (murine bone marrow cells; peptide 100 μg/ml): 37 ± 2.2; IL-2 production by murine spleen cells (murine spleen cells; peptide 0.001 μg/ml, 36 hours): 114 ± 12; IL-2 production by murine spleen cells (murine spleen cells; peptide 0.01 μg/ml): 106 ± 10; IL-2 production by murine spleen cells (murine spleen cells; peptide 0.1 μg/ml): 106 ± 5; IL-2 production by murine spleen cells (murine spleen cells; peptide 1.0 μg/ml): 189 ± 13; IL-2 production by murine spleen cells (murine spleen cells; peptide 10 μg/ml): 80 ± 9; IL-2 production by murine spleen cells (murine spleen cells; peptide 100 μg/ml): 89 ± 3"
N[C@@H](CCC(=O)N[C@@H](Cc1c[nH]cn1)C(=O)O)C(=O)O [γ-L-glutamyl-L-histidine],"little, if any, of the activities of Bestim",,,,,,,,,,,,,,
CC[C@H](C)[C@H](NC(=O)CC[C@H](N)C(=O)O)C(=O)O [γ-L-glutamyl-L-isoleucine],"little, if any, of the activities of Bestim",,,,,,,,,,,,,,
CC(C)C[C@H](NC(=O)CC[C@H](N)C(=O)O)C(=O)O [γ-L-glutamyl-L-leucine],"little, if any, of the activities of Bestim",,,,,,,,,,,,,,
N[C@@H](CCC(=O)N[C@@H](Cc1ccccc1)C(=O)O)C(=O)O [γ-L-glutamyl-L-phenylalanine],"little, if any, of the activities of Bestim",,,,,,,,,,,,,,
N[C@@H](CCC(=O)N1CCC[C@H]1C(=O)O)C(=O)O [γ-L-glutamyl-L-proline],"little, if any, of the activities of Bestim",,,,,,,,,,,,,,
N[C@@H](CCC(=O)N[C@@H](Cc1ccc(O)cc1)C(=O)O)C(=O)O [γ-L-glutamyl-L-tyrosine],"little, if any, of the activities of Bestim",,,,,,,,,,,,,,
"RKDVY [thymopentin, Arg-Lys-Asp-Val-Tyr]",,,,,,,,,,,,,,,half-life of breakdown in plasma [1]: 30 s
γ-L-glutamyl-β-thienyl-D-alanyl-amide,active compounds were obtained,20%,23%,20%,27%,28%,36%,40%,146 ± 28,127 ± 26,128 ± 10,156 ± 11,172 ± 12,198 ± 7,
